Experiments:
Conditions in all cases: read-out: INH
[1] = Cytotoxicity against human HEK293 cells at 10 uM measured after 48 hrs by sulforhodamine B assay relative to control; type: cell-based
[2] = Cytotoxicity against human HeLa cells at 10 uM measured after 48 hrs by sulforhodamine B assay relative to control; type: cell-based
[3] = Cytotoxicity against human PC3 cells at 10 uM measured after 48 hrs by sulforhodamine B assay relative to control; type: cell-based, PC-3
[4] = Cytotoxicity against human PANC1 cells at 10 uM measured after 48 hrs by sulforhodamine B assay relative to control; type: cell-based, PANC-1
[5] = Cytotoxicity against human SKOV3 cells at 10 uM measured after 48 hrs by sulforhodamine B assay relative to control; type: cell-based, SK-OV-3
[6] = Cytotoxicity against human HEK293 cells at 2 uM measured after 48 hrs by sulforhodamine B assay relative to control; type: cell-based
[7] = Cytotoxicity against human HeLa cells at 2 uM measured after 48 hrs by sulforhodamine B assay relative to control; type: cell-based
[8] = Cytotoxicity against human PC3 cells at 2 uM measured after 48 hrs by sulforhodamine B assay relative to control; type: cell-based, PC-3
[9] = Cytotoxicity against human PANC1 cells at 2 uM measured after 48 hrs by sulforhodamine B assay relative to control; type: cell-based, PANC-1
[10] = Cytotoxicity against human SKOV3 cells at 2 uM measured after 48 hrs by sulforhodamine B assay relative to control; type: cell-based, SK-OV-3

| SMILES | cytotoxicity at 48 h, 10 µM [1] [%] | cytotoxicity at 48 h, 10 µM [2] [%] | cytotoxicity at 48 h, 10 µM [3] [%] | cytotoxicity at 48 h, 10 µM [4] [%] | cytotoxicity at 48 h, 10 µM [5] [%] | cytotoxicity at 48 h, 2 µM [6] [%] | cytotoxicity at 48 h, 2 µM [7] [%] | cytotoxicity at 48 h, 2 µM [8] [%] | cytotoxicity at 48 h, 2 µM [9] [%] | cytotoxicity at 48 h, 2 µM [10] [%] |
| --- | --- | --- | --- | --- | --- | --- | --- | --- | --- | --- |
| COc1nc2ccc(Br)cc2cc1C(c1ccccc1)n1cc(-c2cccc(F)c2)nn1 (stereo not given) | 6.84 | 9.04 | 14.6 | 15.5 | 12.7 | – | – | – | – | – |
| COc1nc2ccc(Br)cc2cc1C(c1ccccc1)n1cc(-c2ccc(Br)cc2)nn1 (stereo not given) | 6.28 | 6.92 | 7.43 | 10.4 | 13.4 | – | – | – | – | – |
| CCCCCc1cn(C(c2ccccc2)c2cc3cc(Br)ccc3nc2OC)nn1 (stereo not given) | -2 | -9.81 | 11.4 | 5.07 | 10.5 | – | – | – | – | – |
| COc1nc2ccc(Br)cc2cc1C(c1ccccc1)n1cc(CCCO)nn1 (stereo not given) | 27.4 | 11.3 | 14.7 | 25.5 | 13.8 | – | – | – | – | – |
| CCOC(=O)c1cn(C(c2ccccc2)c2cc3cc(Br)ccc3nc2OC)nn1 (stereo not given) | 2 | -3.67 | 16.1 | 15.4 | 2.01 | – | – | – | – | – |
| COc1nc2ccc(Br)cc2cc1C(c1ccccc1)n1cc(-c2ccc(F)cc2)nn1 (stereo not given) | 4.04 | 4.27 | 16.4 | 14.9 | 14.3 | – | – | – | – | – |
| COc1nc2ccc(Br)cc2cc1C(c1ccccc1)n1cc(CO)nn1 (stereo not given) | 11.5 | 0.25 | 4.65 | 15 | 3.23 | – | – | – | – | – |
| COc1nc2ccc(Br)cc2cc1C(c1ccccc1)n1cc(-c2ccccc2)nn1 (stereo not given) | 8.25 | 13.9 | 5.97 | 30.1 | 13.7 | – | – | – | – | – |
| CCCCCCCCc1cn(C(c2ccccc2)c2cc3cc(Br)ccc3nc2OC)nn1 (stereo not given) | 14.6 | 0.1 | 2.27 | 12.1 | 2.06 | – | – | – | – | – |
| COc1cccc2c1C(=O)c1c(O)c3c(c(O)c1C2=O)C[C@@](O)(C(=O)CO)C[C@@H]3O[C@H]1C[C@H](N)[C@H](O)[C@H](C)O1 [DOXORUBICIN] | – | – | – | – | – | 75.6 | 74.1 | 86.7 | 96.1 | 83.3 |
| COc1nc2ccc(Br)cc2cc1C(c1ccccc1)n1cc(CCCCCO)nn1 (stereo not given) | 7.96 | 1.08 | 12.9 | 19.6 | 8.69 | – | – | – | – | – |
| COc1nc2ccc(Br)cc2cc1C(c1ccccc1)n1cc(C2CC2)nn1 (stereo not given) | 8.22 | -5.84 | 22.6 | 21.8 | 3.52 | – | – | – | – | – |
| CCCCCCCc1cn(C(c2ccccc2)c2cc3cc(Br)ccc3nc2OC)nn1 (stereo not given) | 0.17 | 9.7 | 4.42 | 16.6 | 10.5 | – | – | – | – | – |
| COc1nc2ccc(Br)cc2cc1C(c1ccccc1)n1cc(-c2ccccc2C(F)(F)F)nn1 (stereo not given) | 14.3 | -1.3 | 17.4 | 11.4 | 9.55 | – | – | – | – | – |
| COc1nc2ccc(Br)cc2cc1C(c1ccccc1)n1cc(CCO)nn1 (stereo not given) | 4.54 | 0.85 | 15.5 | 19.8 | 8.46 | – | – | – | – | – |
| CCCc1cn(C(c2ccccc2)c2cc3cc(Br)ccc3nc2OC)nn1 (stereo not given) | 0.85 | -2.25 | 8.3 | 11.3 | 11.2 | – | – | – | – | – |
| COc1nc2ccc(Br)cc2cc1C(c1ccccc1)n1cc(-c2ccccc2F)nn1 (stereo not given) | 3.97 | 14.1 | 13.4 | 14.7 | 7.33 | – | – | – | – | – |
| COc1nc2ccc(Br)cc2cc1C(c1ccccc1)n1cc(-c2ccc(OC(F)(F)F)cc2)nn1 (stereo not given) | 5.8 | -2.24 | 21.6 | 11.7 | 14.8 | – | – | – | – | – |
| CCCCc1cn(C(c2ccccc2)c2cc3cc(Br)ccc3nc2OC)nn1 (stereo not given) | -3.47 | -2.87 | 5.54 | 5.46 | 11.1 | – | – | – | – | – |
| CCCCCCc1cn(C(c2ccccc2)c2cc3cc(Br)ccc3nc2OC)nn1 (stereo not given) | -3.17 | -0.97 | 2.32 | 6.08 | 7.17 | – | – | – | – | – |
